Assay results reported in US8106055B2, “Substituted amide compounds” (Gruenenthal GmbH, priority 2007, dated 2012).

Biological target: T1, human bradykinin 1 receptor (B1R) (Homo sapiens, UniProt P46663)
T1 construct: expressed in transfected cells; host or cells: CHO K1 cells
T1 sequence (P46663 1-353): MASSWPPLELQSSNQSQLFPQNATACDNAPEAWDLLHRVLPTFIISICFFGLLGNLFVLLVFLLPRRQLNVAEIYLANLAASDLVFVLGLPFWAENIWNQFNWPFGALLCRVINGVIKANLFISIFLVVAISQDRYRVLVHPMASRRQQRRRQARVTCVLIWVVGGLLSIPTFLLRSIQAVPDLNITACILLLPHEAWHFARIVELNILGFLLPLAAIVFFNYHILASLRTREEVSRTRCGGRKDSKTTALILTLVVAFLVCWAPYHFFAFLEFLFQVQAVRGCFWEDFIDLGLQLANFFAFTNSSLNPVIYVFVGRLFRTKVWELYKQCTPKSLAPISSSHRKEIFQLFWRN
Assay: Functional investigation on the human bradykinin 1 receptor (B1R), Ca2+ FLIPR assay in CHO K1 hB1R cells
Format: cell-based
Details: B1R antagonism human; test substance 10 μM; Ca2+ FLIPR, CHO K1 hB1R cells
Outline: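 Stably transfected CHO K1 cells loaded with Fluo-4; FLIPR Ca2+ fluorescence peak (ex 488/em 540 nm). Compound added first (agonism vs Lys-Des-Arg9-bradykinin ≥50 nM human, Des-Arg9-bradykinin 10 μM rat), then after 10-20 min agonist at EC80; antagonism as % inhibition, IC50 from concentration series, n=2-3, N≥2.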

Going from `CN(C)C(c1cccc(F)c1)C1CCC(CCNC(=O)COCCC2CCN(S(=O)(=O)c3ccccc3)CC2)CC1` (stereo not shown) [Example 543] to `CN(C)C(c1ccc(F)cc1)C1CCC(CNC(=O)COCCC2CCN(S(=O)(=O)c3ccccc3)CC2)CC1` (stereo not shown) [Example 583], the “B1R Ant. h [10 μM] % Inhibition” value rises from −31% to −27%.

Going from `COc1ccc(S(=O)(=O)N2CCCCC2COCC(=O)NCC2CCC(C(CCc3ccccc3)N(C)C)CC2)cc1OC` (stereo not shown) [Example 559] to `COc1ccc(S(=O)(=O)N2CCCCC2COCC(=O)NCC2CCC(C(CCc3ccccc3)N(C)C)CC2)c(OC)c1` (stereo not shown) [Example 420], the “B1R Ant. h [10 μM] % Inhibition” value falls from 2% to −7%.

Compared with `CN(C)C(CCc1ccccc1)C1CCC(CNC(=O)COC2CCN(S(=O)(=O)c3ccccc3)CC2)CC1` (stereo not shown) [Example 578], `CN(C)C(CCc1ccccc1)C1CCC(CNC(=O)COC2CCN(S(=O)(=O)c3ccccc3)C2)CC1` (stereo not shown) [Example 573] is higher in “B1R Ant. h [10 μM] % Inhibition” value: −14% for the first, −4% for the second.

First: CN(C)C(c1ccc(Cl)cc1)C1CCC(CNC(=O)COCCC2CCN(S(=O)(=O)c3ccccc3)CC2)CC1 (stereo not shown) [Example 584]
Second: CN(C)C(CCc1ccccc1)C1CCC(CNC(=O)COC2CCN(S(=O)(=O)c3ccc(Cl)cc3)C2)CC1 (stereo not shown) [Example 557]
The “B1R Ant. h [10 μM] % Inhibition” value of the first is lower: −20% for the first, 20% for the second.

First: COc1cc(C)c(S(=O)(=O)N2CCCC(OCC(=O)NCC3CCC(C(CCc4ccccc4)N(C)C)CC3)C2)c(C)c1C (stereo not shown) [Example 551]
Second: CN(C)C(CCc1ccccc1)C1CCC(CNC(=O)COC2CCCN(S(=O)(=O)c3ccccc3)C2)CC1 (stereo not shown) [Example 558]
The “B1R Ant. h [10 μM] % Inhibition” value of the first is higher: 94% for the first, 14% for the second.

Compared with `COc1ccc(S(=O)(=O)N2CCCCC2COCC(=O)NC2CCC(C(c3ccc(F)cc3)N(C)C)CC2)cc1OC` (stereo not shown) [Example 555], `COc1ccc(S(=O)(=O)N2CCCCC2COCC(=O)NCC2CCC(C(c3ccc(F)cc3)N(C)C)CC2)cc1OC` (single isomer, unassigned) [Example 534] is lower in “B1R Ant. h [10 μM] % Inhibition” value: −14% for the first, −18% for the second.

First: CN(C)C(CCc1ccccc1)C1CCC(CNC(=O)COCCN(C)S(=O)(=O)c2c(Cl)cccc2Cl)CC1 (stereo not shown) [Example 476]
Second: CN(C)C(CCc1ccccc1)C1CCC(CNC(=O)COCCN(C)S(=O)(=O)c2ccc(OC(F)(F)F)cc2)CC1 (stereo not shown) [Example 567]
The “B1R Ant. h [10 μM] % Inhibition” value of the first is higher: 103% for the first, 75% for the second.

First: COc1ccc(S(=O)(=O)N(C)CCOCC(=O)NC2CCC(C(c3ccc(F)cc3)N(C)C)CC2)cc1 (stereo not shown) [Example 549]
Second: CN(C)C(c1ccc(Cl)cc1)C1CCC(CCNC(=O)COCCN(C)S(=O)(=O)c2ccc(OC(F)(F)F)cc2)CC1 (stereo not shown) [Example 575]
The “B1R Ant. h [10 μM] % Inhibition” value of the first is higher: 13% for the first, −4% for the second.

First: COc1cc(C)c(S(=O)(=O)N(CCOCC(=O)NCC2CCC(C(c3ccc(F)cc3)N(C)C)CC2)Cc2ccccc2)c(C)c1C (stereo not shown) [Example 563]
Second: COc1cc(C)c(S(=O)(=O)N(CCOCC(=O)NCC2CCC(C(c3ccc(Cl)cc3)N(C)C)CC2)Cc2ccccc2)c(C)c1C (stereo not shown) [Example 560]
The “B1R Ant. h [10 μM] % Inhibition” value of the first is higher: 54% for the first, 16% for the second.

Compared with `CN(C)C(CCc1ccccc1)C1CCC(CNC(=O)COC2CCN(S(=O)(=O)c3cccc(C(F)(F)F)c3)C2)CC1` (stereo not shown) [Example 552], `CN(C)C(CCc1ccccc1)C1CCC(CNC(=O)COCCN(C)S(=O)(=O)c2c(Cl)cccc2Cl)CC1` (stereo not shown) [Example 580] is higher in “B1R Ant. h [10 μM] % Inhibition” value: 49% for the first, 95% for the second.

Going from `COc1cc(C)c(S(=O)(=O)N(CCOCC(=O)NCC2CCC(C(CCc3ccccc3)N(C)C)CC2)Cc2ccccc2)c(C)c1C` (stereo not shown) [Example 562] to `COc1cc(C)c(S(=O)(=O)N(CCOCC(=O)NCCC2CCC(C(c3ccc(Cl)cc3)N(C)C)CC2)Cc2ccccc2)c(C)c1C` (stereo not shown) [Example 576], the “B1R Ant. h [10 μM] % Inhibition” value falls from 91% to −6%.

With `Cc1cc(C)c(S(=O)(=O)N(C)CCOCC(=O)NCCC2CCC(C(c3cccc(F)c3)N(C)C)CC2)c(C)c1` (stereo not shown) [Example 587] the “B1R Ant. h [10 μM] % Inhibition” value was −14%.

Same assay, conditions: CHO-K1, B1R antagonism human; test substance 10 μM; Ca2+ FLIPR, CHO K1 hB1R cells; read-out: B1R Ant. h [10 μM] % Inhibition

Going from `CN(C)C(c1cccc(F)c1)C1CCC(CCNC(=O)COCCN(C)S(=O)(=O)c2ccc(Cl)cc2Cl)CC1` (stereo not shown) [Example 126, 2-(2-(2,4-dichloro-N-methylphenylsulfonamido)ethoxy)-N-(2-(4-((dimethylamino)(3-fluorophenyl)methyl)cyclohexyl)ethyl)acetamide] to `CN(C)C(c1cccs1)C1CCC(CNC(=O)COCCN(C)S(=O)(=O)c2ccc(Cl)cc2Cl)CC1` (stereo not shown) [Example 8, 2-(2-(2,4-dichloro-N-methylphenylsulfonamido)ethoxy)-N-((4-((dimethylamino)(thiophen-2-yl)methyl)cyclohexyl)methyl)acetamide], the inhibition at 10 µM falls from 103% to 101%.

Compared with `COc1ccc(S(=O)(=O)N2Cc3ccccc3CC2COCC(=O)NCC2CCC(C(c3cccs3)N(C)C)CC2)cc1` (stereo not shown) [Example 7, N-((4-((dimethylamino)(thiophen-2-yl)methyl)cyclohexyl)methyl)-2-((2-(4-methoxyphenylsulfonyl)-1,2,3,4-tetrahydroisoquinolin-3-yl)methoxy)acetamide], `COc1ccc(S(=O)(=O)N2CCCC2COCC(=O)NCC2CCC(C(c3cccs3)N(C)C)CC2)cc1` (stereo not shown) [Example 105, N-((4-((dimethylamino)(thiophen-2-yl)methyl)cyclohexyl)methyl)-2-((1-(4-methoxyphenylsulfonyl)pyrrolidin-2-yl)methoxy)acetamide] is lower in inhibition at 10 µM: 47% for the first, 33% for the second.

Compared with `COc1ccc(S(=O)(=O)N2CCCCC2CCOCC(=O)NC2CCC(C(c3cccs3)N(C)C)CC2)cc1` (stereo not shown) [Example 6, N-(4-((dimethylamino)(thiophen-2-yl)methyl)cyclohexyl)-2-(2-(1-(4-methoxyphenylsulfonyl)piperidin-2-yl)ethoxy)acetamide], `COc1ccc(S(=O)(=O)N2CCCCC2COCC(=O)NCCC2CCC(C(c3cccs3)N(C)C)CC2)cc1OC` (stereo not shown) [Example 120, 2-((1-(3,4-dimethoxyphenylsulfonyl)piperidin-2-yl)methoxy)-N-(2-(4-((dimethylamino)(thiophen-2-yl)methyl)cyclohexyl)ethyl)acetamide] is lower in inhibition at 10 µM: 24% for the first, -12% for the second.

Compared with `CN(C)C(c1cccs1)C1CCC(CCNC(=O)COC2CCN(S(=O)(=O)c3cccc(C(F)(F)F)c3)C2)CC1` (stereo not shown) [Example 96, N-(2-(4-((dimethylamino)(thiophen-2-yl)methyl)cyclohexyl)ethyl)-2-(1-(3-(trifluoromethyl)phenylsulfonyl)pyrrolidin-3-yloxy)acetamide], `CN(C)C(c1cccs1)C1CCC(CNC(=O)COC2CCN(S(=O)(=O)c3ccc(F)cc3)C2)CC1` (stereo not shown) [Example 97, N-((4-((dimethylamino)(thiophen-2-yl)methyl)cyclohexyl)methyl)-2-(1-(4-fluorophenylsulfonyl)pyrrolidin-3-yloxy)acetamide] is lower in inhibition at 10 µM: 4% for the first, 1% for the second.

Compared with `CCN(CCOCC(=O)NCCC1CCC(C(c2cccs2)N(C)C)CC1)S(=O)(=O)c1c(C)cc(OC)c(C)c1C` (stereo not shown) [Example 103, N-(2-(4-((dimethylamino)(thiophen-2-yl)methyl)cyclohexyl)ethyl)-2-(2-(N-ethyl-4-methoxy-2,3,6-trimethylphenylsulfonamido)ethoxy)acetamide], `COc1ccc(S(=O)(=O)N(C)CCOCC(=O)NCC2CCC(C(c3cccs3)N(C)C)CC2)cc1OC` (stereo not shown) [Example 127, 2-(2-(3,4-Dimethoxy-N-methylphenylsulfonamido)ethoxy)-N-((4-((dimethylamino)(thiophen-2-yl)methyl)cyclohexyl)methyl)acetamide] is lower in inhibition at 10 µM: 90% for the first, -13% for the second.

Going from `CN(C)C(c1ccccc1)C1CCC(CNC(=O)COCCN(C)S(=O)(=O)c2ccc(F)cc2)CC1` (stereo not shown) [Example 112, N-((4-((dimethylamino)(phenyl)methyl)cyclohexyl)methyl)-2-(2-(4-fluoro-N-methylphenylsulfonamido)ethoxy)acetamide] to `CN(C)C(c1cccs1)C1CCC(CNC(=O)COCCN(Cc2ccccc2)S(=O)(=O)c2ccccc2)CC1` (stereo not shown) [Example 102, 2-(2-(N-benzylphenylsulfonamido)ethoxy)-N-((4-((dimethylamino)(thiophen-2-yl)methyl)cyclohexyl)methyl)acetamide], the inhibition at 10 µM falls from -1% to -4%.

First: CN(C)C(c1cccc(F)c1)C1CCC(NC(=O)COC2CCCCC2N(C)S(=O)(=O)c2ccc(Cl)c(Cl)c2)CC1 (stereo not shown) [Example 132, 2-(2-(3,4-dichloro-N-methylphenylsulfonamido)cyclohexyloxy)-N-(4-((dimethylamino)(3-fluorophenyl)methyl)cyclohexyl)acetamide]
Second: CN(C)C(c1cccs1)C1CCC(CCNC(=O)COCCN2CCN(S(=O)(=O)c3ccccc3)CC2)CC1 (stereo not shown) [Example 99, N-(2-(4-((dimethylamino)(thiophen-2-yl)methyl)cyclohexyl)ethyl)-2-(2-(4-(phenylsulfonyl)piperazin-1-yl)ethoxy)acetamide]
The inhibition at 10 µM of the first is higher: 40% for the first, -8% for the second.
